Results on one compound are retold here after PMC12415691 (RSC Advances, 2025).

In the assay the target is T1, rabbit ALOX15 (Oryctolagus cuniculus, UniProt P12530).
T1 sequence (P12530 1-663): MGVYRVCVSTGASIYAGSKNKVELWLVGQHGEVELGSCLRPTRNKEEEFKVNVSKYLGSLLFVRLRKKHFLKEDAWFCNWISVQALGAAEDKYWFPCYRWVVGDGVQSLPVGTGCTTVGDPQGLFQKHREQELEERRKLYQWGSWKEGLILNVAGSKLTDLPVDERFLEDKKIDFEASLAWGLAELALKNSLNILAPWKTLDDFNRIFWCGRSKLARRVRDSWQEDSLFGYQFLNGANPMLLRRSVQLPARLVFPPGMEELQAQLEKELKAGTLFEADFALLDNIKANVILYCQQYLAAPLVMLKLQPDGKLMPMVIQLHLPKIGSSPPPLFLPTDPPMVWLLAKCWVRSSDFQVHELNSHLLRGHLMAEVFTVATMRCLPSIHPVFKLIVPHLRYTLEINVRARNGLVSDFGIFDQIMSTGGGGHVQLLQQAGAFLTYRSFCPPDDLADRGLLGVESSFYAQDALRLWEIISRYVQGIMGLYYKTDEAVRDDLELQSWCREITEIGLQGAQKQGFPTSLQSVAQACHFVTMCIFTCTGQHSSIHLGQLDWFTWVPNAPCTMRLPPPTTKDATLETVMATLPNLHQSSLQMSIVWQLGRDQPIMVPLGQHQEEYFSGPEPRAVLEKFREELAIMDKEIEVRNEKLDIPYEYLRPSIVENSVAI
As to the kind of experiment: Kinetic measurements of LA/AA oxygenation with inhibitor. The class given is biochemical. Particulars: best fit of kinetic data.

With `CCCCCCCCOC(=O)NS(=O)(=O)Nc1ccc(-c2cc3ccccc3[nH]2)cc1OC` [compound 3, Octyl (N-(4-(1H-indol-2-yl)-2-methoxyphenyl)sulfamoyl)-carbamate], for the setting “AA as substrate”, the “mode of inhibition of AA oxygenation” value is on record as “uncompetitive mode of inhibition”. For the setting “LA as substrate”, the “mode of inhibition of LA oxygenation” value is listed as “uncompetitive mode of inhibition”.
